Experimental findings from patent US20240141356A1, “Driving Axon Regeneration by Activating STAT1 Signaling and cGAS-STING Pathway” (The Hong Kong University of Science and Technology, priority 2022, published 2024) are described below.

In one data set the test system is embryonic DRG neurons. Briefly: Embryonic DRG culture in compartmented chamber, in-vitro axotomy. It is filed as cell-based, mouse. The settings on record: ADU-S100 10 μM added to the axonal or the soma compartment. The method, then:
To culture embryonic DRG in the compartmented chamber, embryonic DRGs were dissected from E13.5 pregnant C57BL/6 mouse embryos in Leibovitz's L-15 medium on ice. Tissues were dissociated in TrypLE for 15 minutes at 37° C. Dissociated neurons were plated in the microfluidic chamber on cleaned glass coverslips pre-coated with poly-D-lysine and laminin in the density of 100000 cells per chamber with 5 μL culture medium supplemented with GlutaMAX (2 mM), B27 (20 ml/l), penicillin-Streptomycin, NGF ([…]) and 5-fluoro-2′-deoxyuridine (10 μM) into the somal compartment. After one hour, 200 μL medium was added into both the somal and axonal compartment. To perform in-vitro axotomy, axons in the axonal chamber were removed by a glass pipette connected to an aspirator. Then, a 150 μL medium was quickly added into the empty compartment. After 2 days in the […], cells were fixed by 4% PFA and then stained by Tuj 1 antibody. The lengths and/or number of longest axons in each chamber were quantified by ImageJ.

The subject of data set [1] is retinal ganglion cells (RGCs). Briefly: Optic nerve crush, number of regenerating axons (CTB labeling). It is filed as in vivo, mouse.
The next data set relates to DRG neurons. The experiment in a line: Adult DRG neuron primary culture, length of the longest axon (compound test). It is filed as cell-based, mouse. To be noted: cGAMP 10 μM; for axon elongation / axon growth in DRG culture: WT DRG neurons, DMXAA 10 μM, C-176 1 μM, H-151 1 μM; for effect on the growth effect induced by cGAMP: DRG culture, DCPIB 100 nM, CBX 10 μM. The method, then:
(§1) In some embodiments, in-vitro screening models of axon regeneration are based on DRG electroporation and replating culture. Adult DRGs were cultured and replated according to the protocol described previously (Weng et al., 2018). In certain embodiments, adult mice were euthanized, and L4-L6 DRGs were dissected from both sides. DRGs were dissociated in 0.5% collagenase for 1.5 hours. Then the medium containing collagenase was replaced by Neurobasal A, and DRGs were gently pipetted 20 times for dissociation. For electroporation, dissociated DRG neurons were transfected by Mouse Neuron Nucleofector Kit in Lonza Nucleofector system using program G103. 6 DRGs and 5 μg plasmid were used for each reaction. Neurobasal-A with 10% B27 supplement was used as the culture medium for DRG neurons.
For quantification of neurite lengths in DRG culture. Cells were fixed and stained with TurboGFP (phosphatase shRNA library screening) or Tuj 1. The lengths of the longest axons in each DRG neuron were quantified by the NeuronJ plugin in ImageJ. For phosphatase screening, 5-10 neurons were quantified for each shRNA. For the compound test, 10-20 cells from each mouse and 3 mice were quantified in each group.

The subject of a further data set is IFNγ. Briefly: Ex-vivo model of sciatic nerve injury, IFNγ immunostaining. The arrangement: species or system mouse. To be noted: injured sciatic nerve segments in DMEM, anisomycin 200 μg/ml, 3-hour incubation. The method, then: For the ex-vivo model of sciatic nerve injury, the nerves were crushed and then cut into about 3 mm to about 5 mm segments. The injured nerve segments were incubated in DMEM supplemented with about 10% FBS and about 1% penicillin/streptomycin. Translation was inhibited by 200 μg/ml anisomycin. After about a 3-hour incubation, nerve segments were fixed by 4% PFA for about 2 hours and then proceeded to the frozen section.
Mice were first perfused by PBS and then 4% PFA for 5 minutes for fixation. Respective tissues were dissected and then post-fixed in 4% PFA for two hours. Fixed tissues were incubated in 30% sucrose overnight and then embedded in an optimum cutting temperature (OCT) compound. Frozen sections were then permeabilized with 0.1% Triton X-100, blocked by 4% normal goat serum for 30 min, and incubated by respective primary antibodies overnight. After PBS washing three times, sections were incubated by secondary antibodies for two hours and washed three times again. Images were taken by Leica SP8 confocal microscope.

The next data set relates to cGAS. The experiment in a line: cGAS expression in retina/RGCs after optic nerve injury (western blot, immunostaining). It is filed as in vivo, mouse.
The test system of a further data set is p-STAT3. Briefly: p-STAT3 in RGCs after optic nerve injury (immunostaining). It is filed as in vivo, mouse. To be noted: Ptpn2 KO group with IFNγ, 1 dpc.
For data set [2], the system named is retinal ganglion cells (RGCs). To be noted: 2 WPI.
A further data set deals with p-STAT1. Briefly: p-STAT1 in RGCs/retina after optic nerve injury (immunostaining, western blot). It is filed as in vivo, mouse. The settings on record: for p-STAT1 accumulation in the nuclei of RGCs: WT, IFNγ administration. (In western blotting, separated proteins are transferred to a membrane and probed.)
The next data set concerns adult DRG neurons. Briefly: DRG replating assay, phosphatase inhibitor screening. It is filed as cell-based, mouse. To be noted: replated adult DRG neurons, inhibitors 100 nM. As to the method: as §1
The culture was replated three days after electroporation. The DRG neurons in the primary culture were gently flushed by 20-30 pipetting to be resuspended in the culture medium. […] The lengths of the longest axons in each DRG neuron were quantified by the NeuronJ plugin in ImageJ. […]
For quantification of neurite lengths in DRG culture. […] The lengths of the longest axons in each DRG neuron were quantified by the NeuronJ plugin in ImageJ. For phosphatase screening, 5-10 neurons were quantified for each shRNA. For the compound test, 10-20 cells from each mouse and 3 mice were quantified in each group.

[3] abbreviates: Ptpn2 cKO plus IFNγ after optic nerve injury.

Turning to `Nc1ncnc2c1ncn2[C@@H]1O[C@@H]2COP(=O)([S-])O[C@@H]3[C@H](O)[C@@H](COP([O-])(=S)O[C@H]2[C@H]1O)O[C@H]3n1cnc2c(N)ncnc21.[Na+].[Na+]` (stereo partly shown) [ADU-S100, reference compound], in the data set on embryonic DRG neurons, the “axon elongation after in-vitro axotomy” value is listed as “enhanced axon elongation”. In data set [1] (mouse, in vivo), the “axon regeneration after optic nerve crush” value is given as “regenerative effect in a dose-dependent manner”.

Regarding `Nc1nc2c(ncn2[C@@H]2O[C@@H]3COP(=O)(O)O[C@H]4[C@@H](O)[C@H](n5cnc6c(N)ncnc65)O[C@@H]4COP(=O)(O)O[C@@H]2[C@@H]3O)c(=O)[nH]1` [2′,3′-cGAMP, reference compound], in data set [1] (mouse, in vivo), the “axon regeneration after optic nerve crush” value is “stimulated significant axon regeneration”, the cGAMP-induced regeneration entry was “suppressed” and the cGAMP-stimulated axon regeneration entry is given as “almost completely blocked”. In the data set on DRG neurons (Sting deletion (Sting KO mice)), the “growth effect of cGAMP on DRG culture” value is reported as “completely abolished”. Moreover, the “axon elongation / axon growth in DRG culture” value in the data set on DRG neurons is “enhanced the axon elongation”.

Regarding `COc1ccc(C[C@H]2NC[C@H](O)[C@H]2OC(C)=O)cc1` [anisomycin], the “reduction of the IFNγ signal” value in the data set on IFNγ was “over 50%”.

For `CC1(C)[C@@H](OC(=O)CCC(=O)O)CC[C@]2(C)[C@H]3C(=O)C=C4[C@@H]5C[C@@](C)(C(=O)O)CC[C@]5(C)CC[C@@]4(C)[C@]3(C)CC[C@@H]12` [CBX], the “effect on the growth effect induced by cGAMP” value in the data set on DRG neurons is reported as “inhibit the growth effect induced by cGAMP”.

“IFNγ: type II interferon, recombinant protein (Prospec)”: the “cGAS in RGCs by immunostaining” value in the data set with cGAS (Ptpn2 cKO in addition to IFNγ, 2 days after injury) is reported as “upregulated”. The “cGAS in retina by western blotting” value in the data set with cGAS (setting [3]) is “detectable only in mouse retinas with Ptpn2 cKO plus IFNγ”. In addition, the “phosphorylated STAT3 (p-STAT3) in RGCs” value with p-STAT3 is given as “also activated”. Also, the RGC survival rates result in [2] (WT or Ptpn2 cKO with PBS or IFNγ) was “comparable among the four groups”. For the same molecule, in [2] (WT, Cgas, Sting or Mavs KO mice with AAV-shRNA-Ptpn2 and IFNγ), the RGC survival result was “comparable among all groups”. Also, the “optic nerve regeneration by IFNγ stimulation” value in [1] (Cgas or Sting KO mice with AAV-shRNA-Ptpn2, 0.1 μg/μL IFNγ, 2 weeks after injury) was “almost completely blocked”. In addition, in data set [1] (Pten/Socs3/Ptpn2 triple KO with AAV-CNTF, IFNγ at time of injury, four weeks), the “axons found at the optic chiasm, vs Pten/Socs3 mutant plus vehicle” value is “about 3 fold”. Moreover, in [1] (Ptpn2 KO mice, protein injected into the eye at time of optic nerve crush, two weeks, IFNγ 0.1 μg/μL, leptin 2, insulin 2, EGF 1, bNGF 1 μg/μL), the “axon regeneration, exogenous ligand screen” value is listed as “significantly boosted axon regeneration”. Also, in [1] (Ptpn2 cKO mice, intravitreal IFNγ immediately after optic nerve injury (repeat with more controls)), the “axon regeneration, IFNγ plus Ptpn2 KO” value is reported as “elicited robust regeneration”. For the same molecule, the “axon regrowth, IFNγ alone” value in [1] (WT mice, intravitreal IFNγ immediately after optic nerve injury) is reported as “induced modest regrowth”. Further, the “axon regeneration, triple KO plus IFNγ vs Pten/Socs3 mutant plus vehicle” value in data set [1] (mouse, in vivo) was “very significant increase in axon regeneration”. Further, in the data set on p-STAT1 (Ptpn2 KO group with IFNγ), the “p-STAT1 in RGCs” value is listed as “enhanced up to 5 dpc”. For the same molecule, in the data set on p-STAT1 (setting [3]), the “p-STAT1 in retina lysates by western blotting” value was “most elevated among all groups”. Moreover, the “p-STAT1 accumulation in the nuclei of RGCs” value is “induced p-STAT1 accumulation” in the data set with p-STAT1 (1 dpc) and “not at 3 dpc” in the data set on p-STAT1 (3 dpc).

Take `CCCCC1(C2CCCC2)Cc2cc(OCCCC(=O)O)c(Cl)c(Cl)c2C1=O` (stereo not shown) [DCPIB]: in the data set on DRG neurons, the “effect on the growth effect induced by cGAMP” value is given as “inhibit the growth effect induced by cGAMP”.

On to `Cc1ccc2c(=O)c3cccc(CC(=O)O)c3oc2c1C` [DMXAA, 5,6-Dimethylxanthenone-4-acetic acid], for which, in the data set on DRG neurons, the “axon elongation / axon growth in DRG culture” value was “enhanced the axon elongation”.

Turning to `CCc1ccc(C(=O)NCCCCC(NC(=O)C(Cc2ccc(C(F)(F)P(=O)(O)O)cc2)NC(=O)C(Cc2ccccc2)NC(=O)COC2CC(C)CCC2C(C)C)C(N)=O)cc1` (stereo not shown) [PTPN2 inhibitor, reference compound], the “in-vitro screening on inhibitors of mouse phosphatases (axon elongation)” value in the data set with adult DRG neurons is “identified from the tyrosine phosphatase inhibitor screening”. Also, in [1] (mouse, in vivo), the “axon regeneration after optic nerve crush” value is on record as “elicited modest axon regeneration”.
